Assay results: US20150038435A1, “N-TERMINALLY MODIFIED OLIGOPEPTIDES AND USES THEREOF” (Novo Nordisk A/S, priority 2012, published 2015)
Starred links: 1 amine or outer side, 2 acyl side, 3 side chain; linkers in the order of their positions; H or OH if unused. Non-standard residues stand in square brackets, D forms with d. Residues, ends and D or L forms follow the SMILES beside them. *: point of attachment. γGlu = O=C(O)[C@H](CCC(=O)[*:2])N[*:1]; Palmitoyl = CCCCCCCCCCCCCCCC(=O)*; Myristoyl = CCCCCCCCCCCCCC(=O)*; Decanoyl = CCCCCCCCCC(=O)*

B1: Soya bean trypsin inhibitor: soya bean trypsin inhibitor (Kunitz type, SBTI), protease inhibitor described in the public domain (protein, UniProt P01070 25-205, looked up)
Trypsin inhibitor A: DFVLDNEGNPLENGGTYYILSDITAFGGIRAAPTGNERCPLTVVQSRNELDKGIGTIISSPYRIRFIAEGHPLSLKFDSFAVIMLCVGIPTEWSVVEDLPEGPAVKIGENKDAMDGWFRLERVSDDEFNNYKLVFCPQQAEDDKCGDIGISIDHDDGTRRLVVSKNKPLVVQFQKLDKESL

Assays:
[1] = Hydrophobicity: retention time during reverse phase HPLC; assay type: physicochemical; conditions: Acquity CSH C18; pH 7.2 buffer/CH3CN gradient; 40° C.
Source text: The retention time (RT) during reverse phase HPLC was taken as a measure of hydrophobicity of an N-terminally modified peptide or oligopeptide of the invention, where the connection is: The longer the RT, the more hydrophobic N-terminally modified peptide or oligopeptide. The following running conditions were applied during HPLC analysis:
Buffer B: 70% (v/v) aq. CH3CN

Trypsin = experiment: Inhibition of enzymatic degradation of a model GLP-1 (FRET substrate) by trypsin; assay type: biochemical; conditions: for Slope of the initial increase in fluorescence obtained during incubation with 0.001 mg/ml Trypsin: compound 1 mM; for EC50: read-out: EC50 Trypsin (0.001 mg/ml), 0.001 mg/ml trypsin, 37° C.
Outline: (§1)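 Initial-rate slopes of fluorescence rise (320 nm ex, 405 nm em), fitted over the linear early phase and averaged from duplicates, were plotted against inhibitor concentration and fitted logistically to give EC50. Reactions ran at 37° C in Dulbecco's PBS, with MCA/DNP GLP-1 FRET substrate added as 10 μl of 100 μM stock.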

[2] = Stability of N-terminally acylated peptides or oligopeptides in GI juice; assay type: in vitro ADME; conditions: GI juice (jejunum extract); degradation of the compound itself in jejunum extract from rat; read-out: t 1/2 in rat GI juice
Experimental: (§2) 96 well plates were coated by incubating with 0.4% Bovine serum albumin (BSA) solution for minimum of 60 min. To each well, 210 μl of buffer (Hank's balanced salt solution-4-(2-hydroxyethyl)-1-piperazineethanesulfonic acid (HBSS-HEPES) buffer) with 0.005% Tween 20 and 0.001% BSA, pH 6.5 precipitated with 3 vol. cold 96% ethanol (EtOH) w. 1% TFA), 30 μl of a substrate (100 μM insulin analogue or GLP-1 analogue in buffer) and 30 μl of N-terminally acylated peptide or oligopeptide of the invention (10 mM) were added. The plates were pre-incubated (before adding GI juice) for 60 min at 37° C. After addition of 30 μl of GI juice (10-times diluted in buffer), the plates were incubated for 60 min/37° C. on shaker. Samples (40 μl) were taken at 0, 5, 10, 20, 30 and 60 min, stopped with 3 vol. cold 96% EtOH w. 1% TFA and spun down in plates (4500 rpm for 10 min). Samples were diluted 5 times with the buffer prior to LC-MS analysis. Standard samples (0.1, 0.5, 1.0, 5.0, 10.0 μM) were prepared and treated as the samples. Standard curve was analysed both at the beginning and the end of the sequence. Two replicates of each tested conditions were included. Ion suppression was assessed by analyzing a standard at 1 μM and at 10 μM with 1 mM inhibitor present. Intact insulin or GLP-1 analoues were determined at each sample. The results were plotted against the incubation time. Half-lives of the insulin or GLP-1 analogues were determined by nonlinear regression of the results using, for example Graph Pad Prism. The half-lives were expressed relative to the half-live of the insulin or GLP-1 analogue without inhibitor present by dividing the half-lives obtained in the presence of inhibitor with those obtained in the absence of inhibitors. GI juice was prepared from male Sprague Dawley rats (200-250 g) by excising approximately 20 cm piece of mid jejunum and rinsing the inside with 2.5 ml 0.9% sodium chloride solution. The sodium chloride solution was collected in a centrifuge tube, pooled from all rats (20) and centrifuged at 4500 rpm./10 min/4° C. The supernatant was aliquoted in tubes and stored at −80° C.
Degradation of the N-terminally fatty acid modified peptide or oligopeptide of the invention themselves in jejunum extract from rat (GI juice) and determination of half-lives, was measured as described above (example 200).

Chymotrypsin [3] = experiment: Inhibition of enzymatic degradation of a model GLP-1 (FRET substrate) by chymotrypsin; assay type: biochemical; conditions: for Slope of the initial increase in fluorescence obtained during incubation with 0.001 mg/ml Chymotrypsin: compound 1 mM; for EC50: read-out: EC50 Chymotrypsin (0.001 mg/ml), 0.001 mg/ml chymotrypsin, 37° C., ± standard error if at least 3 measurements
Outline: as §1

GI juice = experiment: Inhibition of GI juice degradation of insulin analogue and GLP-1 analogue; assay type: biochemical; conditions: rat GI juice
Experimental: as §2, with “To each well, 210 μl of buffer (Hank's balanced salt solution-4-(2-hydroxyethyl)-1-piperazineethanesulfonic acid (HBSS-HEPES) buffer) with 0.005% Tween 20 and 0.001% BSA, pH 6.5 precipitated with 3 vol. cold 96% ethanol (EtOH) w.” left out, “Samples (40 μl) were taken at 0, 5, 10, 20, 30 and 60 min, stopped with 3 vol. cold 96% EtOH w.” left out, “Half-lives of the insulin or GLP-1 analogues were determined by nonlinear regression of the results using, for example Graph Pad Prism.” left out
A14E, B25H, B29K(N(eps)Octadecanedioyl-γGlu-OEG-OEG), desB30 human insulin and N-epsilon26-[2-(2-{2-[2-(2-{2-[(S)-4-Carboxy-4-(17-carboxyheptadecanoylamino)-butyrylamino]ethoxy}ethoxy)acetylamino]ethoxy}ethoxy)acetyl][Aib8,Arg34]GLP-1-(7-37) were used as standards in this assay.
For experiments repeated more than two times, standard deviation is given

Chymotrypsin [4] = experiment: Inhibition of enzymatic degradation of a chromogenic substrate (Example 202); assay type: biochemical; conditions: substrate N-succinyl-Ala-Ala-Pro-Phe-p-Nitroanilide
Source text: The use of chromogenic substrates to monitor activity of proteolytic enzymes is known in the field (for example DelMar, E. G., et al., Anal. Biochem., 99, 316-320, (1979)). For example, N-succinyl-Ala-Ala-Pro-Phe-p-Nitroanilide is commonly used substrate for measuring chymotrypsin activity. Enzymatic cleavage of 4-nitroanilide substrates yields 4-nitroaniline (yellow color under alkaline conditions).
An assay following the increase in absorbance at 395 nm as a function of time was established in 96 well format using Varioskan Flash Multimode Meter (Thermo Scientific). Each well contained 70 μl of Dulbecco's phosphate buffer saline (Invitrogen catalogue #14190-094), 10 μl of N-succinyl-Ala-Ala-Pro-Phe-p-Nitroanilide (Sigma cat# S 7388) in DMSO (different concentrations were used in order to obtain the inhibition constant), 10 μl of N-terminally acylated peptide or oligopeptide of the invention in varying concentration and 10 μl of a stock solution of an enzyme (chymotrypsin, trypsin, elastase, etc.). The incubations were performed at 37° C. Absorbance at 395 nm was measured immediately after addition of the enzyme to the 96 well plate and also every minute for the next 80 minutes. The concentration of the enzyme was optimized to allow determination of slopes for the time course of initial absorbance increase with and without added inhibitors. The slopes were determined by linear regression of the linear part of the fluorescence trace (for example, the first 10 min of the reaction). Each assay was performed in duplicate and average of the two traces was included in the calculations. The relative effect of N-terminally acylated peptide or oligopeptides of the invention on enzymatic degradation of N-succinyl-Ala-Ala-Pro-Phe-p-Nitroanilide was obtained by comparison of the slopes achieved by the same concentration of the N-terminally acylated peptide or oligopeptides. […] This was done by plotting the slopes achieved with different concentrations of the N-terminally acylated peptide or oligopeptides of the invention as a function of their concentrations and fitting the experimental results using, for example, sigmoidal logistic regression (2 parameters, Sigma Plot v 11). Inhibition constants for the interaction between the N-terminally acylated peptide or oligopeptides of the invention and proteolytic enzymes were also obtained by performing the assay described above with varying concentrations of the inhibitor and substrate and analyzing the results, for example, by double reciprocal transformation as known to the person skilled in the art and described for example in Hubalek, F. et al., J. Med. Chem. 47, 1760-1766 (2004).

Molecule	RT (retention time during reverse phase HPLC as a measure of hydrophobicity) [1]	EC50 (Trypsin)	half-life [2]	EC50 (Chymotrypsin [3])	further results
CCCCCCCCCCCCCC(=O)N[C@H](C)C(=O)N[C@H](C)C(=O)N1CCC[C@@H]1C(=O)N[C@H](Cc1ccccc1)C(=O)O [Example 2, N-tetradecanoyl-DAla-DAla-DPro-DPhe-OH] (Myristoyl-[dA][dA][dP][dF]-OH)	9.74 min	112 µM	610 min	85 µM	Slope of the initial increase in fluorescence obtained during incubation with 0.001 mg/ml Trypsin (Trypsin): 0.15; Slope of the initial increase in fluorescence obtained during incubation with 0.001 mg/ml Chymotrypsin (Chymotrypsin [3]): 0.05
CCCCCCCCCCCCCC(=O)N[C@@H](CCC(=O)N[C@H](C)C(=O)N1CCC[C@@H]1C(=O)N[C@H](Cc1ccccc1)C(=O)O)C(=O)O [Example 148, N-tetradecanoyl-γGlu-DAla-DPro-DPhe-OH] ({Myristoyl-γGlu}-[dA]-[dP]-[dF]-OH)			> 1000 min	322 µM	
CCCCCCCCCCCCCC(=O)N[C@@H](CCC(=O)N[C@@H](C)C(=O)N1CCC[C@H]1C(=O)N[C@@H](Cc1ccccc1)C(=O)O)C(=O)O [Example 23, N-tetradecanoyl-γGlu-Ala-Pro-Phe-OH] ({Myristoyl-γGlu}-Ala-Pro-Phe-OH)	5.29 min	44 µM	4.4 min	144 µM	
CCCCCCCCCCCCCC(=O)N[C@@H](CCC(=O)O)C(=O)N[C@@H](C)C(=O)N[C@@H](C)C(=O)N1CCC[C@H]1C(=O)N[C@@H](Cc1ccccc1)C(=O)O [Example 13, N-tetradecanoyl-Glu-Ala-Ala-Pro-Phe-OH] (Myristoyl-EAAPF-OH)	5.19 min				Slope of the initial increase in fluorescence obtained during incubation with 0.001 mg/ml Trypsin (Trypsin): 0.12; Half Life fold increase (over solution w/o N-terminally acylated (oligo)peptide) (GI juice; compound 1 mM): 3.4; Half Life of insulin analogue (GI juice; compound 1 mM, 37° C.): 7.2 min; Slope of the initial increase in fluorescence obtained during incubation with 0.001 mg/ml Chymotrypsin (Chymotrypsin [3]): 0.00
CCCCCCCCCCCCCCCC(=O)N[C@@H](CCC(=O)N[C@@H](C)C(=O)N[C@@H](C)C(=O)N1CCC[C@H]1C(=O)N[C@@H](Cc1ccccc1)C(=O)O)C(=O)O [Example 135, N-hexadecanoyl-γGlu-Ala-Ala-Pro-Phe-OH] ({Palmitoyl-γGlu}-AAPF-OH)	7.5 min	40 µM		45 µM	Half Life fold increase (over solution w/o N-terminally acylated (oligo)peptide) (GI juice; compound 1 mM): 3.8; Half Life of GLP-1 analogue (GI juice; compound 1 mM, 37° C.): 0.9 min; Half Life of insulin analogue (GI juice; compound 1 mM, 37° C.): 9.2 min
N-decanoyl-Ala-Ala-Pro-Phe-OH (Decanoyl-AAPF-OH) [Example 33]	4.93 min				Ki (Chymotrypsin [4]): 850 µM
CCCCCCCCCCCCCC(=O)N[C@@H](Cc1c[nH]cn1)C(=O)N[C@@H](C)C(=O)N[C@@H](CCCNC(=N)N)C(=O)N1CCC[C@H]1C(=O)N[C@@H](Cc1ccccc1)C(=O)O [Example 178, N-tetradecanoyl-His-Ala-Arg-Pro-Phe-OH] (Myristoyl-HARPF-OH)		102 µM	4.5 min	32 µM	
B1					Half Life of insulin analogue (GI juice; inhibitor 0.1%, ± standard deviation): 505.3 ± 309.2 min
